Holding throughout (test): AK assay 384-well format, Prestwick library screening
In one experiment the test system is E. cloacae. It counts as cell-based, Enterobacter cloacae. Particulars: 50 μM final drug concentration; for fold induction at 50 µM: Enterobacter cloacae, 3 h.
In experiment [1] the test system is S. aureus strain USA300-0114. It counts as cell-based, Staphylococcus aureus. The following applies: 50 μM final drug concentration; for fold induction at 50 µM: Staphylococcus aureus, USA300, 3 h.
In the next experiment the test system is E. faecium. It is filed as cell-based, Enterococcus faecium. The following applies: 50 μM final drug concentration; for fold induction at 50 µM: Enterococcus faecium, 3 h.
Experiment [2] has as its system A. baumannii strain 98-37-09. It counts as cell-based, Acinetobacter baumannii. The following applies: 50 μM final drug concentration; for fold induction at 50 µM: Acinetobacter baumannii, 983709, 3 h.
The subject of the next experiment is K. pneumoniae. It counts as cell-based, Klebsiella pneumoniae. Particulars: 50 μM final drug concentration; for fold induction at 50 µM: Klebsiella pneumoniae, 3 h.
The next experiment deals with E. coli. It is filed as cell-based, Escherichia coli. The following applies: 50 μM final drug concentration; for fold induction at 50 µM: Escherichia coli, 3 h.
Another experiment relates to P. aeruginosa. It is filed as cell-based, Pseudomonas aeruginosa. Particulars: 50 μM final drug concentration; for fold induction at 50 µM: Pseudomonas aeruginosa, 3 h.
Where [3] appears, read: planktonic E. cloacae, 384-well, cutoff for positive-scoring molecules 3-fold increase, read-out: AK-based Prestwick Library Screening Results: E. cloacae (increase in extracellular AK activity).
[4] abbreviates: planktonic S. aureus, 384-well, cutoff for positive-scoring molecules 3-fold increase, read-out: AK-based Prestwick Library Screening Results: S. aureus (increase in extracellular AK activity).
Where [5] appears, read: planktonic E. faecium, 384-well, cutoff for positive-scoring molecules 3-fold increase, read-out: AK-based Prestwick Library Screening Results: E. faecium (increase in extracellular AK activity).
Where [6] appears, read: planktonic A. baumannii, 384-well, cutoff for positive-scoring molecules 3-fold increase, read-out: AK-based Prestwick Library Screening Results: A. baumannii (increase in extracellular AK activity).
The mark [7] stands for this setting: planktonic K. pneumoniae, 384-well, cutoff for positive-scoring molecules 3-fold increase, read-out: AK-based Prestwick Library Screening Results: K. pneumoniae (increase in extracellular AK activity).
Setting [8] is: planktonic E. coli, 384-well, cutoff for positive-scoring molecules 3-fold increase, read-out: AK-based Prestwick Library Screening Results: E. coli (increase in extracellular AK activity).
[9] abbreviates: planktonic P. aeruginosa, 384-well, cutoff for positive-scoring molecules 3-fold increase, read-out: AK-based Prestwick Library Screening Results: P. aeruginosa (increase in extracellular AK activity).

Structures can show the parent of a compound that is named as a salt. Where two headings read alike, the source gives them in different places.

With `Nc1nc(O)c2ncn(COC(CO)CO)c2n1` [Ganciclovir], the fold induction at 50 µM is 1.4 in the experiment with E. cloacae (planktonic, cutoff for positive-scoring molecules 3-fold increase, read-out: AK-based Prestwick Library Screening Results, E. cloacae (fold increase in extracellular AK activity)); 0.9 in experiment [1] (planktonic, cutoff for positive-scoring molecules 3-fold increase, read-out: AK-based Prestwick Library Screening Results, S. aureus (fold increase in extracellular AK activity)); 0.9 in the experiment on E. faecium (planktonic, cutoff for positive-scoring molecules 3-fold increase, read-out: AK-based Prestwick Library Screening Results, E. faecium (fold increase in extracellular AK activity)); 0.8 in experiment [2] (planktonic, cutoff for positive-scoring molecules 3-fold increase, read-out: AK-based Prestwick Library Screening Results, A. baumannii (fold increase in extracellular AK activity)); 0.7 with K. pneumoniae (planktonic, cutoff for positive-scoring molecules 3-fold increase, read-out: AK-based Prestwick Library Screening Results, K. pneumoniae (fold increase in extracellular AK activity)); 0.9 in the experiment with E. coli (planktonic, cutoff for positive-scoring molecules 3-fold increase, read-out: AK-based Prestwick Library Screening Results, E. coli (fold increase in extracellular AK activity)). For the same compound, the fold induction at 50 µM in the experiment on P. aeruginosa (planktonic, cutoff for positive-scoring molecules 3-fold increase, read-out: AK-based Prestwick Library Screening Results, P. aeruginosa (fold increase in extracellular AK activity)) turned out to be 0.9.
In the case of `C=C[C@]12CN(C)[C@@H]3[C@H]4CO[C@H](C[C@H]41)[C@]1(C(=O)Nc4ccccc41)[C@@H]32` [Gelsemine], the fold induction at 50 µM was found to be 0.9 in the experiment on E. cloacae (planktonic, […], read-out: AK-based Prestwick Library Screening Results, E. cloacae (fold increase in extracellular AK activity)); 0.7 in experiment [1] (planktonic, […], read-out: AK-based Prestwick Library Screening Results, S. aureus (fold increase in extracellular AK activity)); 0.9 with E. faecium (planktonic, […], read-out: AK-based Prestwick Library Screening Results, E. faecium (fold increase in extracellular AK activity)); 0.7 in experiment [2] (planktonic, […], read-out: AK-based Prestwick Library Screening Results, A. baumannii (fold increase in extracellular AK activity)); 0.7 in the experiment on K. pneumoniae (planktonic, […], read-out: AK-based Prestwick Library Screening Results, K. pneumoniae (fold increase in extracellular AK activity)); 0.9 in the experiment with E. coli (planktonic, […], read-out: AK-based Prestwick Library Screening Results, E. coli (fold increase in extracellular AK activity)). For the same compound, the fold induction at 50 µM in the experiment on P. aeruginosa (planktonic, […], read-out: AK-based Prestwick Library Screening Results, P. aeruginosa (fold increase in extracellular AK activity)) was 0.9.
For `Cc1ccc(C)c(OCCCC(C)(C)C(=O)O)c1` [Gemfibrozil], the fold induction at 50 µM was 1.5 in the experiment with E. cloacae (setting [3]); 0.9 in experiment [1] (setting [4]); 1 in the experiment with E. faecium (setting [5]); 1.3 in experiment [2] (setting [6]); 0.9 with K. pneumoniae (setting [7]); 1.3 in the experiment on E. coli (setting [8]). Also, the fold induction at 50 µM in the experiment on P. aeruginosa (setting [9]) came out at 1.2.
For `C=C1C[C@]23C[C@@]1(O)CC[C@H]2[C@@]12C=C[C@H](O)[C@@](C)(C(=O)O1)[C@H]2[C@@H]3C(=O)O` [Gibberellic acid], the fold induction at 50 µM in the experiment on E. cloacae (cutoff for positive-scoring molecules 3-fold increase, read-out: AK-based Prestwick Library Screening Results, E. cloacae (fold increase in extracellular AK activity)) turned out to be 0.4; in experiment [1] (cutoff for positive-scoring molecules 3-fold increase, read-out: AK-based Prestwick Library Screening Results, S. aureus (fold increase in extracellular AK activity)), 0.4; in the experiment with E. faecium (cutoff for positive-scoring molecules 3-fold increase, read-out: AK-based Prestwick Library Screening Results, E. faecium (fold increase in extracellular AK activity)), 0.8; in experiment [2] (cutoff for positive-scoring molecules 3-fold increase, read-out: AK-based Prestwick Library Screening Results, A. baumannii (fold increase in extracellular AK activity)), 0.4; with K. pneumoniae (cutoff for positive-scoring molecules 3-fold increase, read-out: AK-based Prestwick Library Screening Results, K. pneumoniae (fold increase in extracellular AK activity)) it was 0.5; with E. coli (cutoff for positive-scoring molecules 3-fold increase, read-out: AK-based Prestwick Library Screening Results, E. coli (fold increase in extracellular AK activity)), 0.5. In addition, the fold induction at 50 µM in the experiment on P. aeruginosa (cutoff for positive-scoring molecules 3-fold increase, read-out: AK-based Prestwick Library Screening Results, P. aeruginosa (fold increase in extracellular AK activity)) was determined as 0.4.
For `C[C@@H]1C(=O)O[C@H]2C[C@@]34[C@H]5C[C@@H](C(C)(C)C)[C@]36[C@@H](OC(=O)[C@@H]6O)O[C@@]4(C(=O)O5)[C@]21O` [Ginkgolide A], the “AK-based Prestwick Library Screening Results, E. cloacae (increase in extracellular AK activity)” value with E. cloacae (planktonic E. cloacae, […]) amounted to 1.2. Further, the “AK-based Prestwick Library Screening Results, S. aureus (increase in extracellular AK activity)” value in experiment [1] (planktonic S. aureus, […]) turned out to be 1.1. In addition, the “AK-based Prestwick Library Screening Results, E. faecium (increase in extracellular AK activity)” value with E. faecium (planktonic E. faecium, […]) is listed as 1.0. Also, the “AK-based Prestwick Library Screening Results, A. baumannii (increase in extracellular AK activity)” value in experiment [2] (planktonic A. baumannii, […]) is 1.0. For the same compound, the “AK-based Prestwick Library Screening Results, K. pneumoniae (increase in extracellular AK activity)” value in the experiment on K. pneumoniae (planktonic K. pneumoniae, […]) is reported as 1.0. In the experiment with E. coli (planktonic E. coli, […]), the “AK-based Prestwick Library Screening Results, E. coli (increase in extracellular AK activity)” value was 1.3. Moreover, in the experiment with P. aeruginosa (planktonic P. aeruginosa, […]), the “AK-based Prestwick Library Screening Results, P. aeruginosa (increase in extracellular AK activity)” value came out at 1.1.
In the case of `O=C(OCC(O)CO)c1ccccc1Nc1ccnc2cc(Cl)ccc12` (centres unmarked) [Glafenine hydrochloride], the fold induction at 50 µM in the experiment on E. cloacae (planktonic E. cloacae, 384-well, […], read-out: AK-based Prestwick Library Screening Results: E. cloacae (increase in extracellular AK activity)) worked out at 1.5; in experiment [1] (planktonic S. aureus, 384-well, […], read-out: AK-based Prestwick Library Screening Results: S. aureus (increase in extracellular AK activity)) it was 1.1; with E. faecium (planktonic E. faecium, 384-well, […], read-out: AK-based Prestwick Library Screening Results: E. faecium (increase in extracellular AK activity)), 1.1; in experiment [2] (planktonic A. baumannii, 384-well, […], read-out: AK-based Prestwick Library Screening Results: A. baumannii (increase in extracellular AK activity)), 1.1; with K. pneumoniae (planktonic K. pneumoniae, 384-well, […], read-out: AK-based Prestwick Library Screening Results: K. pneumoniae (increase in extracellular AK activity)) it was 1; in the experiment on E. coli (planktonic E. coli, 384-well, […], read-out: AK-based Prestwick Library Screening Results: E. coli (increase in extracellular AK activity)) it was 1.2. Further, the fold induction at 50 µM in the experiment on P. aeruginosa (planktonic P. aeruginosa, 384-well, […], read-out: AK-based Prestwick Library Screening Results: P. aeruginosa (increase in extracellular AK activity)) turned out to be 1.2.
For the compound `COc1ccc(Cl)cc1C(=O)NCCc1ccc(S(=O)(=O)NC(=O)NC2CCCCC2)cc1` [Glibenclamide], the fold induction at 50 µM is 1.4 with E. cloacae (setting [3]); 0.9 in experiment [1] (setting [4]); 1 with E. faecium (setting [5]); 1.3 in experiment [2] (setting [6]); 1.1 in the experiment on K. pneumoniae (setting [7]); 1.2 in the experiment with E. coli (setting [8]). In addition, the fold induction at 50 µM with P. aeruginosa (setting [9]) worked out at 1.2.
Turning to `Cc1ccc(S(=O)(=O)NC(=O)NN2CC3CCCC3C2)cc1` (centres unmarked) [Gliclazide], the fold induction at 50 µM is 1.8 in the experiment with E. cloacae (planktonic, cutoff for positive 3-fold increase, read-out: AK-based Prestwick Library Screening Results, E. cloacae (fold increase in extracellular AK activity)); 1 in experiment [1] (planktonic, cutoff for positive 3-fold increase, read-out: AK-based Prestwick Library Screening Results, S. aureus (fold increase in extracellular AK activity)); 1 with E. faecium (planktonic, cutoff for positive 3-fold increase, read-out: AK-based Prestwick Library Screening Results, E. faecium (fold increase in extracellular AK activity)); 1.3 in experiment [2] (planktonic, cutoff for positive 3-fold increase, read-out: AK-based Prestwick Library Screening Results, A. baumannii (fold increase in extracellular AK activity)); 1.2 in the experiment with K. pneumoniae (planktonic, cutoff for positive 3-fold increase, read-out: AK-based Prestwick Library Screening Results, K. pneumoniae (fold increase in extracellular AK activity)); 1.2 in the experiment on E. coli (planktonic, cutoff for positive 3-fold increase, read-out: AK-based Prestwick Library Screening Results, E. coli (fold increase in extracellular AK activity)). The fold induction at 50 µM with P. aeruginosa (planktonic, cutoff for positive 3-fold increase, read-out: AK-based Prestwick Library Screening Results, P. aeruginosa (fold increase in extracellular AK activity)) came out at 1.2.

For the origin of these results see US10004701B2, “Methods and compositions for treating infection” (UNIVERSITY OF ROCHESTER, priority 2012, dated 2018).
